Among the data in ChEMBL document CHEMBL4385648 (Bioorg Med Chem, 2019) are IC50 values, retold here.

Usually IC50 stands for the concentration that inhibits the measured activity by half.

SMILES strings stand for the structures.

Assay [1] is described as follows: Inhibition of Influenza A virus (A/Babol/36/2005 (H3N2) neuraminidase expressed by HEK293 cells incubated for 1 hr using 4-MU-NANA substrate by spectrofluorometric assay. It is filed as cell-based.
For the next assay, the target named is Neuraminidase (Influenza A virus, UniProt B4URF0). Put plainly: Inhibition of Influenza A virus (A/Anhui/1/2013 (H7N9) neuraminidase expressed by HEK293 cells incubated for 1 hr using 4-MU-NANA substrate by spectrofluorometric assay. It is filed as cell-based.

Consider `CCCC(=O)c1c(O)c(C=O)c(O)c(Cc2c(O)c(C=O)c(O)c(C(=O)CCC)c2O)c1O`, for which the figures for the IC50 (in assay [1] (read-out: IC50); at Neuraminidase (read-out: IC50)) were 9.8 µM and 2.5 µM, respectively.

As for `CCCC(=O)c1c(O)cc(O)c(CC2=C(O)C(C)(C)C(O)=C(C(C)=O)C2=O)c1O`, the IC50 in assay [1] (read-out: IC50) is 5.6 µM; at Neuraminidase (read-out: IC50) it was 1.6 µM.

Turning to `CCCC(=O)c1c(O)c(CC2=C(O)C(C)(C)C(O)=C(C(C)=O)C2=O)c(O)c(Cc2c(O)c(CC3=C(O)C(C)(C)C(O)=C(C(C)=O)C3=O)c(O)c(C(=O)CCC)c2O)c1O`, the figures for the IC50 (in assay [1] (read-out: IC50); on Neuraminidase (read-out: IC50)) were 36.1 µM and 3.6 µM, respectively.

Consider `CC(=O)C1=C(O)C(C)(C)C(O)=C(CC2=C(O)C(C)(C)C(O)=C(C(C)=O)C2=O)C1=O`, for which the IC50 result (in assay [1]; against Neuraminidase (hek293)) was “Not Active” in each case.

On to `CCOC(=O)C1=C[C@@H](OC(CC)CC)[C@H](NC(C)=O)[C@@H](N)C1` [OSELTAMIVIR], for which the IC50 in assay [1] (read-out: IC50) worked out at 0.1 µM.
